Measurements published in paper PMC12434495 (Chemical Science, 2025).

Columns and labels:
[1] = cited from earlier work
α-thrombin = experiment: human α-thrombin; conditions: 37 °C, up to 4 h

not cleaved (α-thrombin) [% cleavage after 4 h]	Substance	plasma half-life in vivo [1] [min]
	bivalirudin	~30
<10	GEPGAPIDYDEYGDSSEEVGGAEVAQPKLYQRGEGGNGMEPIPEDYLQ (the three Y O-sulfated, R1,2,3 = SO3-)	
